Measurements from patent US20040077080A1, “Compositions and methods for induction of proteins involved in xenobiotic metabolism” (priority 2000, published 2004).
Like-named read-outs stand apart in the source and are kept apart here.

Key:
[1] = tested on: CYP1A1 mRNA; assay: Northern blot of CYP1A1 mRNA in primary cultures of human hepatocytes (Example II); details: hepatocytes
Protocol: Six well plates containing human hepatocytes were obtained from the Liver Tissue Procurement and Distribution System (LTPADS, University of Minnesota, Minneapolis, Minn.). […] All inducers were dissolved in DMSO and added to media at a 0.1% final concentration of this reagent. After treatment, media was removed and cells harvested for RNA isolation.
(§1) Total RNA from hepatocytes or HepG2 cells was isolated using Trizol™ reagent (Gibco BRL Products, Gaithersburg, Md.) and quantified by measuring absorbance at 260 nm; purity was assessed by determining the 260/280 nm ratio. […] A cDNA probe for human 18S RNA probe (Ambion, Austin Tex.) was used to normalize the amount of RNA loaded in each lane. […] Autoradiographs of Northern blots were quantified by densitometry using a Model GS-670 Imaging Densitometer equipped with Molecular Analysis/Mac version 1.1.1. Image Analysis software (BioRad laboratories, Hercules, Calif.) or by scaning autoradiograms with a ScanMaker II (Microtek) and digitized with Un-Scan-It software (Silk Scientific, Orem Utah). Exposure times used were in the linear range of the film, Kodak XAR-5.

[2] = tested on: human CYP1A1 promoter (Ah receptor); assay: 101L cell luciferase assay (HepG2 with human CYP1A1 promoter-luciferase), 96-well; details: 101L cells, 18 hours; 1 to 20 micromolar (resveratrol 10, apigenin 5, quercetin and curcumin 20 micromolar); GTE 0.1 milligrams/ml
Protocol: Cells were initially seeded in flasks containing media without G418. After an overnight incubation the cultures were changed into media containing G418 for antibiotic selection. After three to five days, cells were removed from flasks by trypsinization and replated on either a twenty-four-well plate at a density of 3.5×10^5 cells per well, or a ninety-six-well plate at a density of 7.5×10^4 cells per well, in DMEM media that was replaced with that containing 0.1% FBS and without G418 or indicator (phenol red). The next day, media containing 0.1% FBS and G418 was added to the cultures. […] For the antagonist experiments, cells were co-treated with a flavonoid and two nanomolar TCDD. All inducers were dissolved in DMSO and this reagent was added to control cells at 0.1%. The cells were treated with varous doses and times (six to eighteen hours). After treatment, the media containing the compound was removed by aspiration and replaced with one-hundred microliters per well of DMEM for direct analysis of luciferase activity. Experiments were performed on 101L cells from frozen stocks on the initial derivation and the passage number was limited to thirty.
Luciferase assays were performed as specified by the manufacturer (LucLite system, Packard Instrument, Meriden, Conn.). Activity was determined using a Packard LumiCount luminometer and results expressed as relative light units or fold increase above control (DMSO treated cells.

[3] = tested on: AhR (dioxin response elements); assay: DRE12-6 luciferase assay (HepG2 with dioxin response elements)
Protocol: FIG. 25A: DRE12-6 cells were treated for 28 hours with the indicated concentrations of phytochemicals. FIG. 25B: DRE12-6 cells were treated with the indicated chemicals for 3 hours prior to co-treatment with 2,3,7,8-tetrachlorodibenzo-p-dioxin (TCDD) for 28 hours.
Chemical treatment was followed by cell lysis and luciferase measurement.
FIG. 26A: DRE12-6 cells were inoculated into a 96-well plate (2×10^4 cells per well) a day prior to treatment and treated for 28 hours with the indicated concentrations of the environmental contaminants (PAHs, PAH derivatives, PCBs, or pesticide derivatives). FIG. 26B: DRE12-6 cells were treated with the indicated chemicals for 3 hours prior to co-treatment with 2,3,7,8-tetrachlorodibenzo-p-dioxin (TCDD) for 28 hours.
The luciferase-SV40 promoter vector, with the three copies of the dioxin response elements, was transfected into HepG2 cells, which were put under neomycin selection to yield the stable cell line DRE12-6, for detection of AhR-dependent transactivation.
Luciferase assay: Luciferase assays using the LucLite system (Packard Instrument Co., Meriden, Conn.) were performed according to the manufacturer's instructions. Results were expressed as relative light units or fold induction, relative to DMSO-treated control cells. The data represent the mean±standard deviation of experiments performed in duplicate.

[4] = tested on: CYP1A1 mRNA; assay: Northern blot of CYP1A1 mRNA in HepG2 cells
Protocol: HepG2 cells were obtained from American Type Culture Collection (ATCC). Cells were grown in DMEM (Gibco/BRL). Twenty-four hours after cells were plated and grown to confluency, they were treated with one of the bioflavonoids, TCDD, or beta-naphthoflavone (Sigma). All inducers were dissolved in DMSO and this solvent was added to control cells at 0.1%.
as §1

[5] = tested on: PXR / CYP3A4 response elements; assay: DPX2 (Hepg-hPXR/3A4-Luc) luciferase assay; details: DPX2 cells, 48 hours
Protocol: Compounds tested included known PXR ligands and conventional drugs (FIG. 30A), environmental contaminants (FIG. 30B), and herbal supplements (FIG. 30C). DPX2 cells were cultured with DMEM supplemented with 10% fetal bovine serum and neomycin. Cells were inoculated into 96-well plate at a density of 1×10^4 cells per well the day before treatment.
2. […] In addition, a distal enhancer module, XREM, was amplified by PCR using the sense primer
The resulting amplified XREM fragment was ligated upstream of PXRE containing a 3A4 promoter, into a luciferase vector.
A neomycin resistance gene was generated by PCR amplification using the pcDNA3.1 plasmid (Invitrogen, Carlsbad, Calif.), which encodes a neomycin resistant gene, as a DNA template. The sense primer had the sequence […] Amplification was followed by SalI digestion of the PCR product, and the resulting fragment ligated to the SalI-digested PGL3-promoter plasmid, which contains luciferase as a reporter gene. […] The CYP3A4 cell line DPX2 (Hepg-hPXR/3A4-Luc) was established by double transfection with the PXR expression plasmid and the luciferase plasmid containing CYP3A4 PXR response element under selection with both neomycin and hygromycin.

[6] = tested on: PXR / mdr1(dr4) response element; assay: Hep-PXR/Pgp-Luc stable cell luciferase assay; details: 48 hours; for dose dependence of luciferase induction (in words): Hep-PXR/Pgp-Luc cells; for strength of luciferase induction (in words): Hep-PXR/PgpLuc cells, omeprazole 100 micromoles per liter versus rifampicin 10 micromoles per liter
Protocol: (§2) FIG. 35 depicts dose-response behavior to various PXR activators in stable cell lines overexpressing PXR and harboring DR4 response element. FIG. 35A: Results are shown for the stable cell line Hep-PXR/PgpLuc. FIG. 35B: Results are shown for the stable cell line Caco-PXR/PgpLuc.
(§3) Cells were exposed to the test compounds for 48 hours at the concentrations indicated.
FIG. 36 depicts the effect of environmental and botanical chemicals on luciferase activity in the stable cell line Hep-PXR/PgpLuc. Cells were inoculated into 96-well plates at a density of 2×10^4 cells per well. After overnight recovery, cells were treated with the test compounds at the concentrations indicated for 48 hours.
(§4) Establishment of stable transformants containing both PXR and reporter plasmid and development of high throughput bioassay for PXR-dependent transactivation: The stable transformants Hep-PXR/mdr1(dr4)-Luc and Caco-PXR/mdr1(dr4)-Luc cell lines were generated from the parental cell lines HepG-PXR and Caco-PXR, respectively, according to the following procedure. The parental cell lines HepG-PXR and Caco-PXR, which overexpress PXR, were stably transfected with the luciferase reporter plasmid mdr1(dr4)-Luc. The transfected cells were cultured in DMEM (HepG-PXR cells) or in IMEM (Caco-PXR cells), both media supplemented with 10% fetal bovine serum and neomycin (700 micrograms per milliliter).
(§5) For the induction assay, stable transformants were seeded in 96-wells plates at a density of 1×10^4 cells per well and allowed to recover overnight. Plates were treated with test compounds at varying concentrations, using 3 replicates per dose. After 48 hours of exposure to the test compound, cells were washed with phosphate buffered saline, lysis buffer was applied to the wells, and luciferase substrate added. Following 10 minutes for light adaptation, luminescence was monitored according to the manufacturer's instructions (Packard kit, Biomed).

[7] = tested on: PXR / mdr1(dr4) response element; assay: Caco-PXR/Pgp-Luc stable cell luciferase assay; details: Caco-PXR/Pgp-Luc cells, 48 hours
Protocol: as §2, §3, §4, §5

[8] = tested on: CYP1A1 mRNA; assay: Northern blot of CYP1A1 in primary human hepatocytes (Example V); details: hepatocytes
Excerpt: The isolated RNA was subjected to Northern blot analysis.

[9] = tested on: MDR1 P-glycoprotein mRNA; assay: Northern blot of MDR1 P-glycoprotein expression (Example VI)
Excerpt: FIG. 31 depicts MDR1 gene expression in LS174T cells as analyzed by Northern blot. […] Total RNA from the colon adenocarcinoma cell line LS174T was isolated and fractionated on a 1% formaldehyde gel and transferred onto a nylon membrane. The RNA blot was hybridized to ^32P-labeled MDR1 cDNA probe (top panel) or 18s rRNA probe for normalization of RNA loading on the gel (bottom panel).
FIG. 32A: Lanes 1 and 2, primary human hepatocytes; lanes 3 and 4, LS174T cells. FIG. 32B: Lanes 1 and 2, HepG2 cells; lanes 3 and 4, HepG2 that overexpress PXR (Hepg-PXR cells). FIG. 32C: Lanes 1 and 2, Caco-2; lanes 3 and 4, Caco-2 cells that overexpress PXR (Caco-PXR cells).
Total RNA from the colon adenocarcinoma cell line LS174T was isolated and fractionated on a 1% formaldehyde gel and transferred onto a nylon membrane. The RNA blot was hybridized to ^32-P-labeled MDR1 cDNA probe (top panels), ^32-P-labeled CYP3A4 cDNA probe (middle panels), or 18s rRNA probe for normalization of RNA loading on the gel (bottom panels).
FIG. 37 depicts MDR1 gene regulation in response to chrysin as studied by Northern blot analysis. […] Total RNA from the hepatocytes was isolated and fractionated on a 1% formaldehyde gel and transferred onto a nylon membrane. The RNA blot was hybridized to ^32-P-labeled MDR1 cDNA probe (top panels), ^32P-labeled CYP3A4 cDNA probe (middle panels), or 18s rRNA probe for normalization of RNA loading on the gel (bottom panels).
Northern Blot analysis for MDR1 P-glycoprotein and CYP3A4 expression: Total RNA was prepared from cells (primary hepatocytes, LS174T, HepG2, or Caco-2) using Trizol reagent (Invitrogen, Carlsbad, Calif.). For Northern blots, 15 micrograms of total RNA was fractionated on a 1% formaldehyde gel and transferred onto a nylon membrane by capillary transfer. A 530-base pair fragment of MDR1 cDNA was obtained from PCR cloning using the sense primer […] The resulting fragment was ^32P-labeled by random priming (Invitrogen, Carlsbad, Calif.) for use as an MDR1 probe. […] All constructs and cDNAs were subjected to sequence analysis. Hybridization was performed with the ExpressHyb system according to the manufacturer's instructions (Clontech, Palo Alto, Calif.).

[10] = DRE12-6 cells, test compound 3 hours prior to co-treatment with TCDD for 28 hours

## COc1cc(/C=C/C(=O)CC(=O)/C=C/c2ccc(O)c(OC)c2)ccc1O [curcumin]
[1]
  induction of CYP1A1 mRNA in isolated hepatocytes (in words): did not elicit induction

## (−)-epigallocatechin gallate [EGCG]
[2]
  fold induction of CYP1A1-promoter-mediated luciferase activity by flavonoids: negligible effects

## O=c1c(O)c(-c2ccc(O)cc2)oc2cc(O)cc(O)c12 [kaempferol]
[1]; human, 24 h
  CYP1A1 mRNA level Subject B (%), normalized to TCDD induction: 0%
  CYP1A1 mRNA level Subject C (%), normalized to benzanthracene induction: 10%
  CYP1A1 mRNA level Subject D (%), normalized to TCDD induction: 0%
[3]
  effect on TCDD-mediated luciferase induction (in words): effectively inhibited

## O=c1cc(-c2ccc(O)cc2)oc2cc(O)cc(O)c12 [apigenin]
[4]; human
  HepG2 CYP1A1 mRNA (%), normalized to TCDD induction: 1%
[1]; human, 24 h
  CYP1A1 mRNA level Subject B (%), normalized to TCDD induction: 0%
  CYP1A1 mRNA level Subject C (%), normalized to benzanthracene induction: 3%
  CYP1A1 mRNA level Subject D (%), normalized to TCDD induction: 0%
[3]
  effect on TCDD-mediated luciferase induction (in words): effectively inhibited

## Clc1cc(-c2ccccc2)c(Cl)c(Cl)c1Cl [2,3,4,5 tetrachlorobiphenyl]
[3]; [10]
  effect on TCDD-mediated luciferase induction (in words): effectively inhibited

## O=C1C[C@@H](c2ccc(O)cc2)Oc2cc(O)cc(O)c21 [naringenin]
[4]; human
  HepG2 CYP1A1 mRNA (%), normalized to TCDD induction: 0%
[1]; human, 24 h
  CYP1A1 mRNA level Subject D (%), normalized to TCDD induction: 0%

## Clc1ccccc1C(c1ccccc1)(c1ccccc1)n1ccnc1 [clotrimazole]
[5]
  luciferase response curve (in words): dose-dependent

## C[C@@H]1C[C@H]2[C@@H]3CCC4=CC(=O)C=C[C@]4(C)[C@@]3(F)[C@@H](O)C[C@]2(C)[C@@]1(O)C(=O)CO [dexamethasone]
[6]
  dose dependence of luciferase induction (in words): dose-dependent luciferase induction
  strength of luciferase induction (in words): Weaker luciferase induction
[7]
  dose dependence of luciferase induction (in words): dose-dependent luciferase induction

## Cc1ccc2cc3c(ccc4ccccc43)c3c2c1CC3 [3-MC, 3-methylcholanthrene]
[8]
  CYP1A1 induction by Northern blot (in words): maximum induction
[3]; DRE12-6 cells, 28 hours
  AhR-mediated luciferase induction (in words): dose-dependent increase

## O=c1c(O)c(-c2ccc(O)c(O)c2)oc2cc(O)cc(O)c12 [quercetin]
[1]
  induction of CYP1A1 mRNA in isolated hepatocytes (in words): did not elicit induction
[3]
  effect on TCDD-mediated luciferase induction (in words): effectively inhibited

## Oc1ccc(C=Cc2cc(O)cc(O)c2)cc1 [resveratrol]
[4]; human
  HepG2 CYP1A1 mRNA (%), normalized to TCDD induction: 12%
[1]; human, 24 h
  CYP1A1 mRNA level Subject A (%), normalized to TCDD induction: 5%
  CYP1A1 mRNA level Subject B (%), normalized to TCDD induction: 0%
  CYP1A1 mRNA level Subject C (%), normalized to benzanthracene induction: 12%
  CYP1A1 mRNA level Subject D (%), normalized to TCDD induction: 0%

## CO[C@H]1/C=C/O[C@@]2(C)Oc3c(C)c(O)c4c(O)c(c(/C=N/N5CCN(C)CC5)c(O)c4c3C2=O)NC(=O)/C(C)=C\C=C\[C@H](C)[C@H](O)[C@@H](C)[C@@H](O)[C@@H](C)[C@H](OC(C)=O)[C@@H]1C [rifampicin]
[9]; human
  MDR1 P-glycoprotein expression in Hep-PXR stable cells (in words): did not induce MDR1 P-glycoprotein expression further

## COc1ccc(C(c2ccc(OC)cc2)C(Cl)(Cl)Cl)cc1 [methoxychlor]
[5]
  luciferase response curve (in words): dose-dependent
[6]
  strength of luciferase induction (in words): strongly induced
[3]; [10]
  effect on TCDD-mediated luciferase induction (in words): effectively inhibited

## C[C@@]12CCC[C@H]1[C@@H]1CC[C@H]3C[C@@H](O)CC[C@]3(C)[C@H]1CC2 [androstanole]
[6]
  dose dependence of luciferase induction (in words): dose-dependent luciferase induction
[7]
  dose dependence of luciferase induction (in words): dose-dependent luciferase induction

## O=c1cc(-c2ccccc2)oc2ccc3ccccc3c12 [beta-naphthoflavone]
[4]
  HepG2 CYP1A1 mRNA (%), normalized to TCDD induction: 50%

## CC#C[C@]1(O)CC[C@H]2[C@@H]3CCC4=CC(=O)CCC4=C3[C@@H](c3ccc(N(C)C)cc3)C[C@@]21C [RU486, mifepristone]
[9]; LS174T cells, 48 hours
  MDR1 expression in LS174T cells (in words): effectively induced
[6]
  dose dependence of luciferase induction (in words): dose-dependent luciferase induction
[7]
  dose dependence of luciferase induction (in words): dose-dependent luciferase induction
  strength of luciferase induction (in words): strongly induce
